{"source": "patent US20140142140A1", "about": "“PHARMACEUTICAL COMPOSITION FOR NEUROLOGICAL DISORDERS” (priority 2011, published 2014)", "key": {"[1]": {"test_system": "patients with autism / ASD / communication disorder", "assay": "Case reports, Autism and other Pervasive Development Disorders (Example 6)", "format": "in vivo, human", "details": "for communication, family relationships, behavioural disturbance: 1 mg daily increased to 3 mg in divided doses daily", "source_text": "Patient 6A: Adult, diagnosed in childhood with autism and ADHD. A long history of behavioural disturbance with frequent episodes of violence despite treatment with high-dose antipsychotic medication. […] The high-dose antipsychotic medication has been reduced without any associated loss of recent benefit. […] A history of behavioural disturbance and educational impairment. […] Patient 6C was an adult, diagnosed in childhood with autism and ADHD with a history of behavioural disturbance and educational impairment. […] Patient 6D: Adult, diagnosed in childhood with autism, ADHD and antisocial personality traits. […] Patient C's conversation became more appropriate and consistent together with reported improvements in significant relationships. […] Patient 6E was an adult, diagnosed with communication disorder and major depression. […] Patient 6F was an adult with ASD. […] The patient's conversation became more appropriate and consistent and improvements in significant relationships were reported. A reduction in the reliance on alcohol to alleviate anxiety in social situations was observed. […] Sodium valproate was withdrawn and improvement was noted. […] Patient 6G was as adult, diagnosed in childhood with ASD. […] Sodium valproate was withdrawn. […] This has also been associated with improvements in reading and verbal understanding. These benefits have been sustained in some situations for three years. Although difficult to be objective, there seems to be good evidence of ongoing improvement. […] Improvements in coordination, in fine and gross motor control have been reported and improvement in gait which frequently is a significant issue for individuals with autistic disorders."}, "[2]": {"details": "cited from earlier work"}, "[3]": {"test_system": "patient with tardive dyskinsia", "assay": "Case report, Tardive Dyskinesia (Example 10)", "format": "in vivo, human", "details": "Patient 10A; test dose of 1 mg", "source_text": "Patient 10A was an elderly person with a history of post-dramatic stress disorder treated with long-term antipsychotic medication."}, "[4]": {"test_system": "patients with schizophrenia", "assay": "Case reports, Schizophrenia (Example 7)", "format": "in vivo, human", "source_text": "Patient 7A: Adult, initially diagnosed with schizophrenia in adolescence. Long history of impairment with predominant paranoid delusions controlled with antipsychotic medication although still experiencing significant relapses despite consistent adherence to the pharmacotherapy regime. Significant social impairment, unable to sustain employment and requires support. Prominent negative symptoms and social deficits, unable to sustain eye contact when speaking. Speech slow, effortful and fatiguing. […] Prosody and rate of speech both improved. Patient 7B: Adult initially diagnosed with schizophrenia during adolescence, following many years of prominent positive symptoms with severe behavioural disturbances and violence requiring periods of hospitalisation. Patient has never been able to sustain employment and requires significant social support to maintain functioning. Prominent thought disorder and general social disengagement. […] Able to sustain and enjoy social interaction in a sheltered workshop which had never occurred previously."}}, "note": "Read-outs that look alike come from different tables or passages of the source."}
{"smiles": "O=C1NC(=O)C(c2ccccc2)(c2ccccc2)N1", "note": "[phenyloin, 5,5-diphenylhydantoin]", "values": [{"measurement": "social interaction and conversation", "setting": "[1]; Patient 6A, autism and ADHD, single test dose sublingual 1 mg", "result": "immediate improvement noted in their ability to socially interact and sustain limited conversation"}, {"measurement": "social interaction, home and day respite centre", "setting": "[1]; Patient 6A, 4 mg sustained release daily", "result": "improvement was consistently noted"}, {"measurement": "behaviour after withdrawal", "setting": "[1]; Patient 6A, withdrawal and recommencement", "result": "return of the behavioural disturbance which abated on recommencement"}, {"measurement": "communication, family relationships, behavioural disturbance", "setting": "[1]; Patient 6B", "result": "sustained improvement in communication and family relationships together with a reduction in behavioural disturbance"}, {"measurement": "improvements at a higher dose or withdrawn", "setting": "[1]; Patient 6B", "result": "Improvements were lost"}, {"measurement": "communication, family relationships, behavioural disturbance", "setting": "[1]; Patient 6C", "result": "sustained improvement in communication and family relationships together with a reduction in behavioural disturbance"}, {"measurement": "improvements at a higher dose or withdrawn", "setting": "[1]; Patient 6C", "result": "improvements were lost"}, {"measurement": "behaviour, verbal and non-verbal communication", "setting": "[1]; Patient 6D, 2 mg daily", "result": "Significant improvement in behaviour, verbal and non-verbal communication"}, {"measurement": "benefit of increased dose", "setting": "[1]; Patient 6D, 4 mg", "result": "No additional benefit"}, {"measurement": "non-verbal and verbal communication", "setting": "[1]; autistic spectrum and social communication disorders, Ultra low dose, frequently below 5 mg", "result": "frequent instant improvement in both their non-verbal and verbal communication"}, {"measurement": "duration of sustained benefits in some situations", "setting": "[1]; low dose", "result": "three years"}, {"measurement": "symptoms of Social Communication Disorder", "setting": "[1]; ultra low dose", "result": "significant improvements in many patients"}, {"measurement": "half-life", "setting": "[2]; high doses", "result": "prolonged"}, {"measurement": "metabolism", "setting": "[2]; in vivo", "result": "almost completely metabolized in the liver"}, {"measurement": "time for plasma concentration to reach steady-state level", "setting": "[2]; in vivo", "result": "1-2 weeks"}, {"measurement": "half-life", "setting": "[2]; low doses", "result": "less than 20 h"}, {"measurement": "abnormal facial movements", "setting": "[3]", "result": "abnormal facial movements ceased"}, {"measurement": "communication, prosody and rate of speech", "setting": "[4]; Patient 7A (on antipsychotic medication), 2 mg daily", "result": "significant improvement in ability to communicate with less effort"}, {"measurement": "speech and reading aloud a standard text", "setting": "[4]; Patient 7B, 1 mg sublingual", "result": "significant improvement in speech and ability to read aloud a standard text"}, {"measurement": "effects when withdrawn", "setting": "[4]; Patient 7B, phenyloin withdrawn", "result": "Positive effects abated"}]}
